According to patent EP1247803A2, “Indolinone compounds suitable for modulation of protein kinases” (Sugen, Inc., priority 1996, dated 1998):

Molecular target: T1, FLK-1 receptor (Mus musculus, UniProt P35918)
T1 construct: expressed in transfected cells; host or cells: NIH3T3 C7#3
Test: FLK-1 ELISA (kinase activity of the FLK-1 receptor in FLK-1/NIH3T3 cells, VEGF stimulated)
Format: cell-based
Parameters: concentration or dose not given beside the values
Summary of the method: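 NIH3T3 C7#3 cells expressing FLK-1 were seeded at 25.000 cells/well, serum-starved overnight in 0.1% FBS, then treated with compound for two hours at 37°C (final DMSO 0.5%) before VEGF stimulation. Receptor was captured on anti-rabbit IgG-coated ELISA plates bearing affinity-purified anti-FLK-1 antiserum.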

T1 sequence (P35918 20-1345): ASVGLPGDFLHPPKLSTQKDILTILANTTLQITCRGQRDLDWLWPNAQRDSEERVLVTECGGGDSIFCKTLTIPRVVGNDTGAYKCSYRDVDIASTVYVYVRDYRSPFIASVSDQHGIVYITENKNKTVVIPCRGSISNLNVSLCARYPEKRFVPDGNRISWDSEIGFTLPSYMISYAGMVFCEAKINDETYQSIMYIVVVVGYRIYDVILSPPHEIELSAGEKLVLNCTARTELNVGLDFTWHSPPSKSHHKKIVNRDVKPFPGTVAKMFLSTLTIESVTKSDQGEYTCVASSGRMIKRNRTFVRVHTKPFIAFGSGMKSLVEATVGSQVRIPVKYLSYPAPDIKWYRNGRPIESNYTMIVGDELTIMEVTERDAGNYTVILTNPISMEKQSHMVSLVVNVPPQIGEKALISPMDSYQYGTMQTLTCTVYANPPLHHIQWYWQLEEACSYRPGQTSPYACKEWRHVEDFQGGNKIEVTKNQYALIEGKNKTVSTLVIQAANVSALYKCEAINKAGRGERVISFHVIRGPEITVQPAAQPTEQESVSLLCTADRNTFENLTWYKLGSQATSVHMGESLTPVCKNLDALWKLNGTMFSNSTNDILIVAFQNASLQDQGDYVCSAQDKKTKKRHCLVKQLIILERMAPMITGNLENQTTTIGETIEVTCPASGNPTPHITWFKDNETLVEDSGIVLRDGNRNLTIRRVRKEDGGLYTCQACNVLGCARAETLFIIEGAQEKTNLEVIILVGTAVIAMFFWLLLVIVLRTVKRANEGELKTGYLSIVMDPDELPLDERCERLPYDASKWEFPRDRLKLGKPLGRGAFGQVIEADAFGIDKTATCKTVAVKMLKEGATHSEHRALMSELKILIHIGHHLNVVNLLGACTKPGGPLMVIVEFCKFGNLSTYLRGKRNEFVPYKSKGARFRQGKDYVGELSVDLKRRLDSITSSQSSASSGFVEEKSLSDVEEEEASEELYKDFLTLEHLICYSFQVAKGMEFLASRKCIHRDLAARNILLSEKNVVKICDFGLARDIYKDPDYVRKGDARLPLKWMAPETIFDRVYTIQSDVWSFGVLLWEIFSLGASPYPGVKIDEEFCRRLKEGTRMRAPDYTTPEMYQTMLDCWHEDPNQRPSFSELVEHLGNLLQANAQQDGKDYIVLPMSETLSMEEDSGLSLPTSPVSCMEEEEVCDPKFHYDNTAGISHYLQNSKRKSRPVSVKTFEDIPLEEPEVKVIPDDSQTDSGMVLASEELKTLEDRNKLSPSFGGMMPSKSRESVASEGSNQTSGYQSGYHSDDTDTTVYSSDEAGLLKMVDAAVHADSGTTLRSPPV

| SMILES | Fik Kinase %Inhibition |
| --- | --- |
| O=C1Nc2ccc(CCCl)cc2C1=Cc1ccc(Br)cc1 [10717/G08] | 1.9% |
| CNS(=O)(=O)c1ccc2c(c1)C(=Cc1cn(C)cc1C)C(=O)N2 [10726/D06] | 16.3% |
| O=C1Nc2ccc(F)cc2C1=C1C(=O)Nc2ccc(S(=O)(=O)Nc3ccc(C(F)(F)F)cc3)cc21 [10726/E08] | 4.1% |
| Cc1c(Br)ccc2c1C(=Cc1ccccc1Sc1ccc(Cl)cc1)C(=O)N2 [10727/C05] | 13.7% |
| O=C1Nc2c(Br)cc(Br)cc2C1=Cc1cc2c(cc1Cl)OCO2 [10727/A06] | -17.1% |
| O=C1Nc2ccc(I)cc2C1=Cc1cc(O)ccc1O [10727/B10] | 3.9% |
| N#Cc1ccc(C=C2C(=O)Nc3ccc(I)cc32)cc1 [10727/B09] | 6.7% |
| O=C1Nc2ccccc2C1=C1C(=O)Nc2ccc(S(=O)(=O)N3CCOCC3)cc21 [10726/F09] | 9.6% |
| COc1ccc(C=C2C(=O)Nc3ccc(CCCl)cc32)cc1 [10726/G11] | 9.1% |
| CNS(=O)(=O)c1ccc2c(c1)C(=C1C(=O)Nc3ccc(F)cc31)C(=O)N2 [10726/D08] | 12.1% |
| Cc1ccc(C=C2C(=O)Nc3ccc(CCCl)cc32)s1 [10717/G07] | -17.0% |
| N#Cc1cccc(C=C2C(=O)Nc3ccc(I)cc32)c1 [10727/B08] | 4.0% |
| Cc1cn(C)cc1C=C1C(=O)Nc2ccc(S(=O)(=O)Nc3ccc(C(F)(F)F)cc3)cc21 [10726/E06] | 6.2% |
| O=C1Nc2c(Br)cc(Br)cc2C1=Cc1cc(O)ccc1O [10727/A10] | -6.4% |
| CCOC(=O)c1[nH]c(C=C2C(=O)Nc3ccc(S(=O)(=O)Nc4ccc(C(F)(F)F)cc4)cc32)c(C(=O)OC)c1C [10726/E03] | -5.5% |
| O=C1Nc2ccc(F)cc2C1=C1C(=O)Nc2ccc(S(=O)(=O)N3CCOCC3)cc21 [10726/F08] | 15.3% |
| O=C1Nc2ccc(S(=O)(=O)Nc3ccc(C(F)(F)F)cc3)cc2C1=Cc1cc(O)c2c(c1O)CCCC2 [10726/E07] | -40.0% |
| CCOC(=O)c1[nH]c(C=C2C(=O)Nc3ccc(CCCl)cc32)c(C(=O)OC)c1C [10726/G03] | 11.3% |
| O=C1Nc2ccccc2C1=C1C(=O)Nc2ccc(S(=O)(=O)Nc3ccc(C(F)(F)F)cc3)cc21 [10726/E09] | 9.9% |
| CCc1ccc(C=C2C(=O)Nc3ccc(Br)c(C)c32)s1 [10726/C10] | 5.5% |
| O=C1Nc2ccccc2C1=C1C(=O)Nc2ccc(CCCl)cc21 [10726/G09] | 3.6% |
| Cc1cn(C)cc1C=C1C(=O)Nc2ccc(S(=O)(=O)N3CCOCC3)cc21 [10726/F06] | 17.7% |
| CNS(=O)(=O)c1ccc2c(c1)C(=C1C(=O)Nc3ccccc31)C(=O)N2 [10726/D09] | 14.4% |
| O=C1Nc2ccc(CCCl)cc2C1=Cc1ccc(Br)o1 [10726/G05] | 14.9% |
| O=C1Nc2ccc(F)cc2C1=C1C(=O)Nc2ccc(CCCl)cc21 [10726/G08] | 2.9% |
| COc1ccc(C=C2C(=O)Nc3ccc(S(=O)(=O)Nc4ccc(C(F)(F)F)cc4)cc32)cc1 [10726/E11] | 16.2% |
| CCc1cc(CC)c(C=C2C(=O)Nc3ccc(I)cc32)[nH]1 [10727/B03] | -13.4% |

| SMILES | Fik Kinase %Inhibition |
| --- | --- |
| O=C1Nc2ccc(I)cc2C1=Cc1cc(Cl)cc(Br)c1O [10727/B04] | 46.0% |
| O=C1Nc2c(Br)cc(Br)cc2C1=Cc1ccccc1Sc1ccc(Cl)cc1 [10727/A05] | 4.2% |
| CCOC(=O)c1[nH]c(C=C2C(=O)Nc3ccc(S(=O)(=O)N4CCOCC4)cc32)c(C(=O)OC)c1C [10726/F03] | 8.3% |
| CCOC(=O)c1[nH]c(C=C2C(=O)Nc3ccc(S(=O)(=O)NC)cc32)c(C(=O)OC)c1C [10726/D03] | 21.6% |
| CCN(CC)c1ccc(C=C2C(=O)Nc3ccc(I)cc32)cc1 [10727/B02] | 2.4% |
| O=C1Nc2ccc(I)cc2C1=Cc1ccccc1Sc1ccc(Cl)cc1 [10727/B05] | 10.5% |
| O=C1Nc2c(Br)cc(Br)cc2C1=Cc1c[nH]c2ccccc12 [10717/A06] | -10.8% |
| O=C1Nc2ccc(I)cc2C1=Cc1cc2c(cc1Cl)OCO2 [10727/B06] | -3.9% |
| Cc1c(Br)ccc2c1C(=C1C(=O)Nc3ccccc31)C(=O)N2 [10726/C09] | 12.9% |
| CCc1cc(CC)c(C=C2C(=O)Nc3c(Br)cc(Br)cc32)[nH]1 [10727/A03] | 6.3% |
| Cc1cc(C=C2C(=O)Nc3ccc(S(=O)(=O)Nc4ccc(C(F)(F)F)cc4)cc32)cc(C(C)(C)C)c1O [10726/E04] | 8.1% |
| Cc1cn(C)cc1C=C1C(=O)Nc2ccc(CCCl)cc21 [10726/G06] | 7.0% |
| Cc1cc(C=C2C(=O)Nc3ccc(S(=O)(=O)N4CCOCC4)cc32)cc(C(C)(C)C)c1O [10726/F04] | 31.5% |
| O=C1Nc2ccc(CCCl)cc2C1=Cc1ccc(F)cc1 [10717/G05] | 5.3% |
| O=C1Nc2ccc(S(=O)(=O)N3CCOCC3)cc2C1=Cc1ccc(Br)o1 [10726/F05] | 8.9% |
| O=C1Nc2ccc(I)cc2C1=Cc1coc2ccccc2c1=O [10727/B07] | 8.4% |
| CCN(CC)c1ccc(C=C2C(=O)Nc3ccc(Br)c(C)c32)cc1 [10727/C02] | -2.0% |
| N#Cc1ccc(C=C2C(=O)Nc3c(Br)cc(Br)cc32)cc1 [10727/A09] | -16.8% |
| CCc1ccc(C=C2C(=O)Nc3ccc(S(=O)(=O)Nc4ccc(C(F)(F)F)cc4)cc32)s1 [10726/E10] | 16.5% |
| O=C1Nc2c(Br)cc(Br)cc2C1=Cc1cc(Cl)cc(Br)c1O [10727/A04] | -4.6% |
| Cc1c(Br)ccc2c1C(=Cc1cc(Cl)cc(Br)c1O)C(=O)N2 [10727/C04] | 0.2% |
| CCc1cc(CC)c(C=C2C(=O)Nc3ccc(S(=O)(=O)NC)cc32)[nH]1 [10727/D03] | 3.1% |
| COc1cccc(C=C2C(=O)Nc3ccc(I)cc32)c1OC [10727/B11] | 16.8% |
| N#Cc1cccc(C=C2C(=O)Nc3c(Br)cc(Br)cc32)c1 [10727/A08] | -0.6% |
| Cc1c(Br)ccc2c1C(=Cc1ccc(C#N)cc1)C(=O)N2 [10727/C09] | -13.5% |
| CCN(CC)c1ccc(C=C2C(=O)Nc3ccc(S(=O)(=O)NC)cc32)cc1 [10727/D02] | 3.2% |
| COc1cccc(C=C2C(=O)Nc3c(Br)cc(Br)cc32)c1OC [10727/A11] | 7.4% |

| SMILES | Fik Kinase %Inhibition |
| --- | --- |
| Cn1cccc1C=C1C(=O)Nc2ccc(CCCl)cc21 [10717/G04] | 0.8% |
| CNS(=O)(=O)c1ccc2c(c1)C(=Cc1ccc(Br)o1)C(=O)N2 [10726/D05] | 8.2% |
| CCc1ccc(C=C2C(=O)Nc3ccc(S(=O)(=O)N4CCOCC4)cc32)s1 [10726/F10] | 7.0% |
| CNS(=O)(=O)c1ccc2c(c1)C(=Cc1ccc(OC)cc1)C(=O)N2 [10726/D11] | 10.5% |
| CCc1ccc(C=C2C(=O)Nc3ccc(CCCl)cc32)s1 [10726/G10] | 10.5% |
| O=C1Nc2ccc(S(=O)(=O)Nc3ccc(C(F)(F)F)cc3)cc2C1=Cc1ccc(Br)o1 [10726/E05] | 8.1% |
| O=C1Nc2ccc(CCCl)cc2C1=Cc1ccc[nH]1 [10717/G09] | -29.7% |
| Cc1c(Br)ccc2c1C(=C1C(=O)Nc3ccc(F)cc31)C(=O)N2 [10726/C08] | 3.4% |
| O=C1Nc2ccc(CCCl)cc2C1=Cc1cc(O)c2c(c1O)CCCC2 [10726/G07] | -13.7% |
| Cc1c(Br)ccc2c1C(=Cc1cc3c(cc1Cl)OCO3)C(=O)N2 [10727/C06] | 5.2% |
| O=C1Nc2ccc(S(=O)(=O)N3CCOCC3)cc2C1=Cc1cc(O)c2c(c1O)CCCC2 [10726/F07] | 9.6% |
| Cc1cc(C=C2C(=O)Nc3ccc(CCCl)cc32)cc(C(C)(C)C)c1O [10726/G04] | 9.7% |
| O=C1Nc2ccc(CCCl)cc2C1=Cc1c[nH]c2ccccc12 [10717/G06] | 4.3% |
| COc1cccc(O)c1C=C1C(=O)Nc2ccc(CCCl)cc21 [10717/G10] | 4.8% |
| CCc1cc(CC)c(C=C2C(=O)Nc3ccc(Br)c(C)c32)[nH]1 [10727/C03] | -3.2% |
| Cc1c(Br)ccc2c1C(=Cc1cccc(C#N)c1)C(=O)N2 [10727/C08] | 4.9% |
| CNS(=O)(=O)c1ccc2c(c1)C(=Cc1cc(O)c3c(c1O)CCCC3)C(=O)N2 [10726/D07] | -26.9% |
| COc1ccc(C=C2C(=O)Nc3ccc(S(=O)(=O)N4CCOCC4)cc32)cc1 [10726/F11] | 13.6% |
| Cc1c(Br)ccc2c1C(=Cc1cc(O)ccc1O)C(=O)N2 [10727/C10] | -35.3% |
| COc1cccc(C=C2C(=O)Nc3ccc(Br)c(C)c32)c1OC [10727/C11] | -25.6% |
| CNS(=O)(=O)c1ccc2c(c1)C(=Cc1cc(C)c(O)c(C(C)(C)C)c1)C(=O)N2 [10726/D04] | 7.8% |
| COc1ccc(C=C2C(=O)Nc3ccc(Br)c(C)c32)cc1 [10726/C11] | -32.2% |
| CCc1ccc(C=C2C(=O)Nc3ccc(S(=O)(=O)NC)cc32)s1 [10726/D10] | 14.7% |
| Cc1c(Br)ccc2c1C(=Cc1coc3ccccc3c1=O)C(=O)N2 [10727/C07] | 15.9% |
| O=C1Nc2c(Br)cc(Br)cc2C1=Cc1coc2ccccc2c1=O [10727/A07] | -10.7% |
| CCN(CC)c1ccc(C=C2C(=O)Nc3c(Br)cc(Br)cc32)cc1 [10727/A02] | -1.3% |
